Values after ≈ are worked out from the molar mass of the structure shown.
What was measured:
Format in all cases: functional
Haemophilus influenzae [1] = assay: Antibacterial activity against Haemophilus influenzae 2 after 20 hrs by agar dilution method; settings: Haemophilus influenzae, 2, 20 h
Streptococcus pneumoniae [2] = assay: Antibacterial activity against Streptococcus pneumoniae 6 expressing constitutive ermB methylase and mefA after 20 hrs by agar dilution method; settings: Streptococcus pneumoniae, 6, 20 h
Haemophilus influenzae [3] = assay: Antibacterial activity against Haemophilus influenzae 3 after 20 hrs by agar dilution method; settings: Haemophilus influenzae, 3, 20 h
Streptococcus pneumoniae [4] = assay: Antibacterial activity against Streptococcus pneumoniae 11 expressing mefA efflux pump after 20 hrs by agar dilution method; settings: Streptococcus pneumoniae, 11, 20 h
Streptococcus pyogenes [5] = assay: Antibacterial activity against Streptococcus pyogenes Cook after 20 hrs by agar dilution method
Streptococcus pneumoniae [6] = assay: Antibacterial activity against Streptococcus pneumoniae 5 expressing constitutive ermB methylase after 20 hrs by agar dilution method; settings: Streptococcus pneumoniae, 5, 20 h
Haemophilus influenzae [7] = assay: Antibacterial activity against Haemophilus influenzae 1 after 20 hrs by agar dilution method; settings: Haemophilus influenzae, 1, 20 h
Streptococcus pneumoniae [8] = assay: Antibacterial activity against Streptococcus pneumoniae 10 expressing mefA efflux pump after 20 hrs by agar dilution method; settings: Streptococcus pneumoniae, 10, 20 h
Streptococcus pneumoniae [9] = assay: Antibacterial activity against Streptococcus pneumoniae 9 expressing inducible ermB methylase after 20 hrs by agar dilution method; settings: Streptococcus pneumoniae, 9, 20 h
Streptococcus pyogenes [10] = assay: Antibacterial activity against Streptococcus pyogenes 2 expressing constitutive ermB methylase after 20 hrs by agar dilution method; settings: Streptococcus pyogenes, 2, 20 h
Streptococcus pneumoniae [11] = assay: Antibacterial activity against Streptococcus pneumoniae 7 expressing constitutive ermB methylase after 20 hrs by agar dilution method; settings: Streptococcus pneumoniae, 7, 20 h
Streptococcus pneumoniae [12] = assay: Antibacterial activity against Streptococcus pneumoniae DP1 type 1 after 20 hrs by agar dilution method; settings: DP1 type1, 20 h
Streptococcus pneumoniae [13] = assay: Antibacterial activity against Streptococcus pneumoniae 8 expressing inducible ermB methylase after 20 hrs by agar dilution method; settings: Streptococcus pneumoniae, 8, 20 h
Staphylococcus aureus = assay: Antibacterial activity against Staphylococcus aureus 209P JC1 after 20 hrs by agar dilution method; settings: 209P JC1, 20 h
Streptococcus pyogenes [14] = assay: Antibacterial activity against Streptococcus pyogenes 3 expressing mefA efflux pump after 20 hrs by agar dilution method; settings: Streptococcus pyogenes, 3, 20 h

Row | MIC (Haemophilus influenzae [1]) | MIC (Streptococcus pneumoniae [2]) | MIC (Haemophilus influenzae [3]) | MIC (Streptococcus pneumoniae [4]) | MIC (Streptococcus pyogenes [5]) | MIC (Streptococcus pneumoniae [6]) | MIC (Haemophilus influenzae [7]) | MIC (Streptococcus pneumoniae [8]) | MIC (Streptococcus pneumoniae [9]) | MIC (Streptococcus pyogenes [10]) | MIC (Streptococcus pneumoniae [11]) | MIC (Streptococcus pneumoniae [12]) | MIC (Streptococcus pneumoniae [13]) | MIC (Staphylococcus aureus) | MIC (Streptococcus pyogenes [14]) | Structure (SMILES)
1 | 32 µg/mL (≈ 29.9 µM) | 32 µg/mL (≈ 29.9 µM) | 32 µg/mL (≈ 29.9 µM) | 0.06 µg/mL (≈ 0.056 µM) | 0.13 µg/mL (≈ 0.121 µM) | 16 µg/mL (≈ 14.9 µM) | 8 µg/mL (≈ 7.47 µM) | 0.06 µg/mL (≈ 0.056 µM) | 0.25 µg/mL (≈ 0.233 µM) | 64 µg/mL (≈ 59.7 µM) | 16 µg/mL (≈ 14.9 µM) | 0.03 µg/mL (≈ 0.028 µM) | 0.25 µg/mL (≈ 0.233 µM) | 0.5 µg/mL (≈ 0.467 µM) | 0.25 µg/mL (≈ 0.233 µM) | CCCNC(=O)O[C@H]1[C@H](C)O[C@@H](O[C@H]2[C@H](N(C)C)[C@@H](O)[C@H](O[C@H]3[C@@H](CC=O)C[C@@H](C)[C@@H](O)CN(C)CCC[C@H](C/C=C/c4cnc5ccccc5c4)OC(=O)C[C@@H](OC(=O)CC)[C@@H]3OC)O[C@@H]2C)C[C@@]1(C)OC(=O)CC
2 | 32 µg/mL (≈ 29.9 µM) | 16 µg/mL (≈ 14.9 µM) | 32 µg/mL (≈ 29.9 µM) | 0.13 µg/mL (≈ 0.121 µM) | 0.13 µg/mL (≈ 0.121 µM) | 16 µg/mL (≈ 14.9 µM) | 8 µg/mL (≈ 7.47 µM) | 0.06 µg/mL (≈ 0.056 µM) | 0.25 µg/mL (≈ 0.233 µM) | 32 µg/mL (≈ 29.9 µM) | 16 µg/mL (≈ 14.9 µM) | 0.03 µg/mL (≈ 0.028 µM) | 0.25 µg/mL (≈ 0.233 µM) | 0.5 µg/mL (≈ 0.467 µM) | 0.25 µg/mL (≈ 0.233 µM) | CCC(=O)O[C@@H]1CC(=O)O[C@@H](C/C=C/c2cnc3ccccc3c2)CCCN(C)C[C@H](O)[C@H](C)C[C@H](CC=O)[C@H](O[C@@H]2O[C@H](C)[C@@H](O[C@H]3C[C@@](C)(OC(=O)CC)[C@@H](OC(=O)NC(C)C)[C@H](C)O3)[C@H](N(C)C)[C@H]2O)[C@H]1OC
3 | 32 µg/mL (≈ 30.3 µM) | > 32 µg/mL | 32 µg/mL (≈ 30.3 µM) | 0.06 µg/mL (≈ 0.0567 µM) | 0.06 µg/mL (≈ 0.0567 µM) | 32 µg/mL (≈ 30.3 µM) | 8 µg/mL (≈ 7.57 µM) | 0.06 µg/mL (≈ 0.0567 µM) | 0.5 µg/mL (≈ 0.473 µM) | > 32 µg/mL | > 32 µg/mL | 0.03 µg/mL (≈ 0.0284 µM) | 0.25 µg/mL (≈ 0.236 µM) | 0.25 µg/mL (≈ 0.236 µM) | 0.06 µg/mL (≈ 0.0567 µM) | CCC(=O)O[C@@H]1CC(=O)O[C@@H](C/C=C/c2cnc3ccccc3c2)CCCN(C)C[C@H](O)[C@H](C)C[C@H](CC=O)[C@H](O[C@@H]2O[C@H](C)[C@@H](O[C@H]3C[C@@](C)(OC(=O)CC)[C@@H](OC(=O)N(C)C)[C@H](C)O3)[C@H](N(C)C)[C@H]2O)[C@H]1OC
4 | 16 µg/mL (≈ 14.9 µM) | 32 µg/mL (≈ 29.8 µM) | 16 µg/mL (≈ 14.9 µM) | 0.015 µg/mL (≈ 0.014 µM) | 0.06 µg/mL (≈ 0.0559 µM) | > 32 µg/mL | 4 µg/mL (≈ 3.73 µM) | 0.015 µg/mL (≈ 0.014 µM) | 0.5 µg/mL (≈ 0.466 µM) | > 32 µg/mL | 32 µg/mL (≈ 29.8 µM) | 0.015 µg/mL (≈ 0.014 µM) | 0.25 µg/mL (≈ 0.233 µM) | 0.5 µg/mL (≈ 0.466 µM) | 0.13 µg/mL (≈ 0.121 µM) | CCC(=O)O[C@@H]1CC(=O)O[C@@H](C/C=C/c2cnc3ccccc3c2)CCCN(C)C[C@H](O)[C@H](C)C[C@H](CC=O)[C@H](O[C@@H]2O[C@H](C)[C@@H](O[C@H]3C[C@@](C)(OC(=O)CC)[C@@H](OC(=O)NCCO)[C@H](C)O3)[C@H](N(C)C)[C@H]2O)[C@H]1OC
5 | 32 µg/mL (≈ 30.3 µM) | 64 µg/mL (≈ 60.5 µM) | 16 µg/mL (≈ 15.1 µM) | 0.03 µg/mL (≈ 0.0284 µM) | 0.06 µg/mL (≈ 0.0567 µM) | 64 µg/mL (≈ 60.5 µM) | 8 µg/mL (≈ 7.57 µM) | 0.03 µg/mL (≈ 0.0284 µM) | 0.5 µg/mL (≈ 0.473 µM) | > 128 µg/mL | 64 µg/mL (≈ 60.5 µM) | 0.015 µg/mL (≈ 0.0142 µM) | 0.5 µg/mL (≈ 0.473 µM) | 0.5 µg/mL (≈ 0.473 µM) | 0.25 µg/mL (≈ 0.236 µM) | CCNC(=O)O[C@H]1[C@H](C)O[C@@H](O[C@H]2[C@H](N(C)C)[C@@H](O)[C@H](O[C@H]3[C@@H](CC=O)C[C@@H](C)[C@@H](O)CN(C)CCC[C@H](C/C=C/c4ccnc5ccccc45)OC(=O)C[C@@H](OC(=O)CC)[C@@H]3OC)O[C@@H]2C)C[C@@]1(C)OC(=O)CC
6 | 16 µg/mL (≈ 15.1 µM) | 8 µg/mL (≈ 7.57 µM) | 16 µg/mL (≈ 15.1 µM) | 0.03 µg/mL (≈ 0.0284 µM) | 0.06 µg/mL (≈ 0.0567 µM) | 8 µg/mL (≈ 7.57 µM) | 8 µg/mL (≈ 7.57 µM) | 0.03 µg/mL (≈ 0.0284 µM) | 0.25 µg/mL (≈ 0.236 µM) | 128 µg/mL (≈ 121 µM) | 8 µg/mL (≈ 7.57 µM) | 0.015 µg/mL (≈ 0.0142 µM) | 0.13 µg/mL (≈ 0.123 µM) | 0.5 µg/mL (≈ 0.473 µM) | 0.25 µg/mL (≈ 0.236 µM) | CCNC(=O)O[C@H]1[C@H](C)O[C@@H](O[C@H]2[C@H](N(C)C)[C@@H](O)[C@H](O[C@H]3[C@@H](CC=O)C[C@@H](C)[C@@H](O)CN(C)CCC[C@H](C/C=C/c4cncc5ccccc45)OC(=O)C[C@@H](OC(=O)CC)[C@@H]3OC)O[C@@H]2C)C[C@@]1(C)OC(=O)CC
7 | 16 µg/mL (≈ 15.9 µM) | 32 µg/mL (≈ 31.8 µM) | 32 µg/mL (≈ 31.8 µM) | 0.06 µg/mL (≈ 0.0596 µM) | 0.13 µg/mL (≈ 0.129 µM) | 32 µg/mL (≈ 31.8 µM) | 4 µg/mL (≈ 3.97 µM) | 0.06 µg/mL (≈ 0.0596 µM) | 0.5 µg/mL (≈ 0.496 µM) | > 64 µg/mL | 32 µg/mL (≈ 31.8 µM) | 0.015 µg/mL (≈ 0.0149 µM) | 0.5 µg/mL (≈ 0.496 µM) | 0.5 µg/mL (≈ 0.496 µM) | 0.5 µg/mL (≈ 0.496 µM) | CCNC(=O)O[C@H]1[C@H](C)O[C@@H](O[C@H]2[C@H](N(C)C)[C@@H](O)[C@H](O[C@H]3[C@@H](CC=O)C[C@@H](C)[C@@H](O)CN(C)CCC[C@H](C/C=C/c4cccnc4)OC(=O)C[C@@H](OC(=O)CC)[C@@H]3OC)O[C@@H]2C)C[C@@]1(C)OC(=O)CC
8 | 16 µg/mL (≈ 15.7 µM) | 8 µg/mL (≈ 7.83 µM) | 32 µg/mL (≈ 31.3 µM) | 0.06 µg/mL (≈ 0.0587 µM) | 0.13 µg/mL (≈ 0.127 µM) | 8 µg/mL (≈ 7.83 µM) | 4 µg/mL (≈ 3.91 µM) | 0.06 µg/mL (≈ 0.0587 µM) | 0.5 µg/mL (≈ 0.489 µM) | > 32 µg/mL | 8 µg/mL (≈ 7.83 µM) | 0.03 µg/mL (≈ 0.0293 µM) | 0.25 µg/mL (≈ 0.245 µM) | 1 µg/mL (≈ 0.978 µM) | 0.5 µg/mL (≈ 0.489 µM) | CCNC(=O)O[C@H]1[C@H](C)O[C@@H](O[C@H]2[C@H](N(C)C)[C@@H](O)[C@H](O[C@H]3[C@@H](CC=O)C[C@@H](C)[C@@H](O)CN(C)CCC[C@H](C/C=C/c4ccc(N)nc4)OC(=O)C[C@@H](OC(=O)CC)[C@@H]3OC)O[C@@H]2C)C[C@@]1(C)OC(=O)CC
